Key:
Plasmodium falciparum [1] = test: Antiplasmodial activity against intraerythrocytic stage of Plasmodium falciparum Dd2 assessed as parasite growth inhibition after 72 hrs by SYBR Green I dye-based assay; type: functional; settings: Dd2, 72 h
Plasmodium falciparum [2] = test: Antiplasmodial activity against Plasmodium falciparum FcB1/Columbia infected in human erythrocytes assessed as parasite growth inhibition after 24 hrs by [3H]-hypoxanthine incorporation assay; type: functional, cell-based
[3] = Stability of the compound under freezing condition; type: physicochemical

Stability [3]	Structure (SMILES)	IC50 (Plasmodium falciparum [1])	IC50 (Plasmodium falciparum [2])
	COc1cc(O)c(C(C)=O)c(O)c1CCC(C)(C)O	> 20 µM	
	COc1c(CCC(C)(C)O)c(O)c(C(C)=O)c(O)c1Cc1c(O)c(C(C)=O)c(O)c(CCC(C)(C)O)c1OC	> 10 µM	
	CC(=O)c1c(O)cc(O)c(C/C=C(/C)CC/C=C(/C)CCC=C(C)C)c1O	3.6 µM	
	COc1c(C/C=C(\C)CCC=C(C)C)c(O)c(C(C)=O)c(O)c1Cc1c(O)c(C(C)=O)c(O)c(C/C=C(\C)CCC=C(C)C)c1OC	1.7 µM	6 µM
	COc1cc(O)c(C(C)=O)c(O)c1	> 20 µM	
	COc1cc(O)c(C(C)=O)c(O)c1C/C=C(/C)CC/C=C(/C)CCC=C(C)C	0.56 µM	
	CC(=O)c1c(O)cc(O)c(C/C=C(\C)CCC=C(C)C)c1O	6.6 µM	
	COc1c(CC=C(C)C)c(O)c(C(C)=O)c(O)c1Cc1c(O)c(C(C)=O)c(O)c(CC=C(C)C)c1OC [MALLOTOJAPONIN C]		0.75 µM
	COc1cc(O)c(C(C)=O)c(O)c1CC=C(C)C	1.7 µM	7.4 µM
Unstable	CC(=O)c1c(O)c(CC=C(C)C)c(O)c(C(c2ccc(F)cc2)c2c(O)cc(O)c(CC=C(C)C)c2O)c1O (centres undefined)	2 to 4 µM	
	COc1cc(O)c(C(C)=O)c(O)c1C/C=C(\C)CCC=C(C)C	0.57 µM	4.4 µM
	CC(=O)c1c(O)cc(O)cc1O [2,4,6-TRIHYDROXYACETOPHENONE]	> 20 µM	
	COc1cc(O)c(C(C)=O)c(O)c1Cc1c(OC)cc(O)c(C(C)=O)c1O	8.1 µM	17.6 µM
	CC(=O)c1c(O)cc(O)c(CC=C(C)C)c1O	> 20 µM	

From ChEMBL document CHEMBL4000152, “Synthesis and Antimalarial Activity of Mallatojaponin C and Related Compounds” (J Nat Prod, 2016)
